molecular target: T1, human GPR40 (Homo sapiens, UniProt O14842); test: Inositol phosphate accumulation assay in FFAR1 (GPR40) CHOK1 clone; type: cell-based; conditions: GPR40 agonist activity; intracellular inositol phosphate release in CHOK1 cells stably expressing recombinant human GPR40; 1 h incubation at 37° C.
T1 construct: expressed in transfected cells
Protocol: The inositol phosphate accumulation assay was performed to characterise the GPR40 agonist activity of the compounds of the present invention.
The assay was carried out in accordance with the method substantially as described in Diabetes, 2008, 57(8):2211-2219 and PLoS One, 2011, 6(11):e27270.
A stable FFAR1 (GPR40) CHOK1 clone was used to determine the GPR40 agonist activity of the test compounds (compounds of the present invention synthesized in the above Examples). The stable FFAR1 (GPR40) CHOK1 clone expressing recombinant human GPR40 was generated according to the procedure described herein below.
Full-length human GPR40 cDNA (Accession Number: NM_005303) was cloned into mammalian expression vector (pReceiver) and was stably transfected into (Chinese Hamster Ovary) CHOK1 cells using Amaxa technology. 2 μg of pReceiver hGPR40 were transfected into 1×10^6 CHOK1 cells in 6 well plates. The cells were split into three 100 mm cell culture plates on the second day and geneticin (800 μg/ml) was added to the cell culture on the third day. The selection medium comprising Ham's F-12 K supplemented with FBS (10%) and geneticin (800 μg/ml) was changed every three days until colonies were formed. The colonies isolated were further purified (single cell cloning) after 14 days to obtain pure isogenic single cell homogenous population of cells expressing the GPR40 receptor protein on the cell surface. GPR40 receptor expression on cell surface was measured by flow cytometry. The in-house transgenic cell line (clone) created was labeled as FFAR1 (GPR40) CHOK1 clone.
FFAR1 (GPR40) CHOK1 cells were suspended in culture medium comprising Ham's F-12 K supplemented with FBS (10%) and geneticin (800 μg/ml). Cells were seeded at a density of 2×10^4 cells per well in a 384 well tissue culture plate and cultured overnight. The medium was discarded and the cells were further resuspended in a stimulation buffer comprising HEPES (10 mM), glucose (5.5 mM), CaCl2 (1 mM), NaCl (150 mM), KCl (4.2 mM), MgCl2 (0.5 mM) and LiCl (50 mM) having a pH of 7.6. The test compounds (representative compounds of Formula (I)) 10 mM stock were prepared in DMSO and subsequently log fold dilution of the test compounds were carried out in the stimulation buffer. Various concentrations of the test compounds and the standard DMSO solution were added to each well. The plates were further incubated at 37° C., 5% CO2 incubator for 1 h. The final concentration of the test compounds in the each well varied from 1 μM to 10 μM. The DMSO concentration in the assay was 0.1% or less. After incubation, lysis reagent and anti-Tb conjugate were added to each well. The intracellular Inositol Phosphate release and accumulation in the test compounds were measured by the binding ability of the anti-Tb conjugate with the inositol phosphate inherently produced in each well as compared with the inositol phosphate coupled to dye d2 added externally to each well. The plates were then read using Perkin Elmer (Envision) plate reader and the fluorescence signal was captured. The EC50 values for the test compounds were calculated from the non linear regression sigmoidal curve graphs plotted between the concentrations of the test compounds and the fluorescence intensity.

T1 sequence (O14842 whole entry): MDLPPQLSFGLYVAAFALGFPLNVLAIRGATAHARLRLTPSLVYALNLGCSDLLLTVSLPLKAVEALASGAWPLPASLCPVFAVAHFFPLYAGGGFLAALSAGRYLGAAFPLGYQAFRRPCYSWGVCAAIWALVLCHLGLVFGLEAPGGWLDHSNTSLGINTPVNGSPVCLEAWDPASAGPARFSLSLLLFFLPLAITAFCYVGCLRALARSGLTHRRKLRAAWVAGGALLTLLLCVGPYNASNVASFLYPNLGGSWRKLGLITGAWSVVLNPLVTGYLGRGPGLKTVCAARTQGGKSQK

Row | SMILES | EC50 [µM]
1 | CS(=O)(=O)CCCOc1ccc(-c2cccc(COc3ccc(C4(CC(=O)O)COC4)cc3)c2)c(Cl)c1 [Example 62, 2-(3-(4-((2′-Chloro-4′-(3-(methylsulfonyl)propoxy)-[1,1′-biphenyl]-3-yl)methoxy)phenyl)oxetan-3-yl)acetic acid] | < 0.1
2 | Cc1cc(OCC2CCOC2)cc(C)c1-c1cccc(COc2ccc(C3(CC(=O)O)COC3)cc2)c1 (centres unmarked) [Example 41, 2-(3-(4-((2′,6′-Dimethyl-4′-((tetrahydrofuran-3-yl)methoxy)-[1,1′-biphenyl]-3-yl)methoxy)phenyl)oxetan-3-yl)acetic acid] | < 0.1
3 | O=C(O)CC1(c2ccc(OCc3cccc(-c4ccc(OCC5CCS(=O)(=O)C5)cc4Cl)c3)cc2)COC1 (centres unmarked) [Example 68, 2-(3-(4-((2′-Chloro-4′-((1,1-dioxidotetrahydrothiophen-3-yl)methoxy)-[1,1′-biphenyl]-3-yl)methoxy)phenyl)oxetan-3-yl)acetic acid] | < 0.1
4 | N#Cc1ccccc1-c1ccc(COc2ccc(C3(CC(=O)O)COC3)cc2)cc1 [Example 6, 2-(3-(4-((2′-Cyano-[1,1′-biphenyl]-4-yl)methoxy)phenyl)oxetan-3-yl)acetic acid] | 0.1 to 0.5
5 | COc1ccc(COc2ccc(C3(CC(=O)O)COC3)cc2)cc1C(F)(F)F [Example 22] | > 0.5
6 | Cc1cc(OC2CCS(=O)(=O)CC2)cc(C)c1-c1cccc(COc2ccc(C3(CC(=O)O)COC3)cc2)c1 [Example 57, 2-(3-(4-((4′-((1,1-Dioxidotetrahydro-2H-thiopyran-4-yl)oxy)-2′,6′-dimethyl-[1,1′-biphenyl]-3-yl)methoxy)phenyl)oxetan-3-yl)acetic acid] | 0.1 to 0.5
7 | COc1cncc(-c2cccc(COc3ccc(C4(CC(=O)O)COC4)cc3)c2)c1 [Example 106, 2-(3-(4-((3-(5-Methoxypyridin-3-yl)benzyl)oxy)phenyl)oxetan-3-yl)acetic acid] | > 0.5
8 | Cc1cc(-c2cccc(COc3ccc(C4(CC(=O)O)COC4)cc3)c2)cc(C)c1OCCCS(C)(=O)=O [Example 79, 2-(3-(4-((3′,5′-Dimethyl-4′-(3-(methylsulfonyl)propoxy)-[1,1′-biphenyl]-3-yl)methoxy)phenyl)oxetan-3-yl)acetic acid] | 0.1 to 0.5
9 | CC1(C)CCC(C)(C)c2cc(COc3ccc(C4(CC(=O)O)COC4)cc3)ccc21 [Example 18, 2-(3-(4-((5,5,8,8-Tetramethyl-5,6,7,8-tetrahydronaphthalen-2-yl)methoxy)phenyl)oxetan-3-yl)acetic acid] | 0.1 to 0.5
10 | Cc1cc(OCC2(CO)COC2)cc(C)c1-c1cccc(COc2ccc(C3(CC(=O)O)COC3)cc2)c1 [Example 55, 2-(3-(4-((4′-((3-(Hydroxymethyl)oxetan-3-yl)methoxy)-2′,6′-dimethyl-[1,1′-biphenyl]-3-yl)methoxy)phenyl)oxetan-3-yl)acetic acid] | < 0.1
11 | CC(=O)N1CC(CC(=O)O)(c2ccc(OCc3cccc(-c4c(C)cc(OCCCS(C)(=O)=O)cc4C)c3)cc2)C1 [Example 96, 2-(1-Acetyl-3-(4-((2′,6′-dimethyl-4′-(3-(methylsulfonyl)propoxy)-[1,1′-biphenyl]-3-yl)methoxy)phenyl)azetidin-3-yl)acetic acid] | > 0.5
12 | O=C(O)CC1(c2ccc(OCc3ccc(C(F)(F)F)c(F)c3)cc2)COC1 [Example 32, 2-(3-(4-((3-Fluoro-4-(trifluoromethyl)benzyl)oxy)phenyl)oxetan-3-yl)acetic acid] | > 0.5
13 | O=C(O)CC1(c2ccc(OCc3cccc(-c4ccc(OCC5CCC5)cc4)c3)cc2)COC1 [Example 75, 2-(3-(4-((4′-(Cyclobutylmethoxy)-[1,1′-biphenyl]-3-yl)methoxy)phenyl)oxetan-3-yl)acetic acid] | > 0.5
14 | O=C(O)CC1(c2ccc(OCc3cccc(-c4ccc(C(F)(F)F)cc4)c3)c(F)c2)COC1 [Example 98, 2-(3-(3-Fluoro-4-((4′-(trifluoromethyl)-[1,1′-biphenyl]-3-yl)methoxy)phenyl)oxetan-3-yl)acetic acid] | > 0.5
15 | Cc1cc(OCC2(C)COC2)cc(C)c1-c1cccc(COc2ccc(C3(CC(=O)O)COC3)cc2)c1 [Example 51, 2-(3-(4-((2′,6′-Dimethyl-4′-((3-methyloxetan-3-yl)methoxy)-[1,1′-biphenyl]-3-yl)methoxy)phenyl)oxetan-3-yl)acetic acid] | > 0.5
16 | Cc1cc(OC2CCCC2)cc(C)c1-c1cccc(COc2ccc(C3(CC(=O)O)COC3)cc2)c1 [Example 59, 2-(3-(4-((4′-(Cyclopentyloxy)-2′,6′-dimethyl-[1,1′-biphenyl]-3-yl)methoxy)phenyl)oxetan-3-yl)acetic acid] | > 0.5
17 | COc1cc(COc2ccc(C3(CC(=O)O)COC3)cc2)ccc1C(F)(F)F [Example 30, 2-(3-(4-((3-Methoxy-4-(trifluoromethyl)benzyl)oxy)phenyl)oxetan-3-yl)acetic acid] | > 0.5
18 | O=C(O)CC1(c2ccc(OCc3cccc(-c4ccc(OCC5(CO)COC5)cc4Cl)c3)cc2)COC1 [Example 66, 2-(3-(4-((2′-Chloro-4′-((3-(hydroxymethyl)oxetan-3-yl)methoxy)-[1,1′-biphenyl]-3-yl)methoxy)phenyl)oxetan-3-yl)acetic acid] | < 0.1
19 | CS(=O)(=O)CCCOc1ccc(-c2cccc(COc3ccc(C4(CC(=O)O)COC4)cc3)c2)cc1C(F)(F)F [Example 87, 2-(3-(4-((4′-(3-(Methylsulfonyl)propoxy)-3′-(trifluoromethyl)-[1,1′-biphenyl]-3-yl)methoxy)phenyl)oxetan-3-yl)acetic acid] | > 0.5
20 | CSc1ccc(-c2cccc(COc3ccc(C4(CC(=O)O)COC4)cc3)c2)cc1 [Example 83, 2-(3-(4-((4′-(Methylthio)-[1,1′-biphenyl]-3-yl)methoxy)phenyl)oxetan-3-yl)acetic acid] | 0.1 to 0.5
21 | Cc1cc(OCCCS(C)(=O)=O)cc(C)c1-c1cccc(COc2ccc(C3(CC(=O)O)CN(S(C)(=O)=O)C3)cc2)c1 [Example 94, 2-(3-(4-((2′,6′-Dimethyl-4′-(3-(methylsulfonyl)propoxy)-[1,1′-biphenyl]-3-yl)methoxy)phenyl)-1-(methylsulfonyl)azetidin-3-yl)acetic acid] | > 0.5
22 | Cc1cc(OCC2CCOCC2)cc(C)c1-c1cccc(COc2ccc(C3(CC(=O)O)COC3)cc2)c1 [Example 43, 2-(3-(4-((2′,6′-Dimethyl-4′-((tetrahydro-2H-pyran-4-yl)methoxy)-[1,1′-biphenyl]-3-yl)methoxy)phenyl)oxetan-3-yl)acetic acid] | < 0.1
23 | Cc1ccc(C(F)(F)F)cc1COc1ccc(C2(CC(=O)O)COC2)cc1 [Example 24] | > 0.5
24 | O=C(O)CC1(c2ccc(OCc3cccc(-c4ccccc4)c3)cc2)COC1 [Example 4, 2-(3-(4-([1,1′-Biphenyl]-3-ylmethoxy)phenyl)oxetan-3-yl)acetic acid] | 0.1 to 0.5
25 | Cc1cc(OCC2CCS(=O)(=O)CC2)cc(C)c1-c1cccc(COc2ccc(C3(CC(=O)O)COC3)cc2)c1 [Example 45, 2-(3-(4-((4′-((1,1-Dioxidotetrahydro-2H-thiopyran-4-yl)methoxy)-2′,6′-dimethyl-[1,1′-biphenyl]-3-yl)methoxy)phenyl)oxetan-3-yl)acetic acid] | < 0.1
26 | CC(C)Sc1ccc(-c2cccc(COc3ccc(C4(CC(=O)O)COC4)cc3)c2)cc1 [Example 89, 2-(3-(4-((4′-(Isopropylthio)-[1,1′-biphenyl]-3-yl)methoxy)phenyl)oxetan-3-yl)acetic acid] | 0.1 to 0.5

Source: patent US20150072969A1, “PHENYL ALKANOIC ACID DERIVATIVES AS GPR AGONISTS” (PIRAMAL ENTERPRISES LIMITED, priority 2012, published 2015)
